Where two headings read alike, the source gives them in different places. No end group written: not given here.
Key:
[1] = Cytotoxicity, resazurin reduction assay; type: cell-based; conditions: Macaca mulatta, LLC-MK2 cells (Macaca mulatta kidney cells), 100.0–0.195 µM, three independent assays in duplicate wells, read-out: IC50 (CC50) Llc-mk2, with 95% confidence interval
Experimental: (§1) RAW 264.7 murine macrophages and Macaca mulatta kidney cells (LLC-MK2) were cultured in 75-cm^2 flasks with 10-mL Dulbecco’s Modified Eagle’s Medium (DMEM) supplemented with 10% fetal bovine serum and 1% penicillin/streptomycin (DMEM-10) medium. Culture conditions were 37°C, 5% CO2, and 95% relative humidity. RAW 264.7 cells were rinsed with PBS, detached with a cell scraper, and passaged every 96 h. LL-MCK2 were subcultured weekly, at 1:4 ratio, via trypsinization.
(§2) The toxicity of the studied AMPs over LLC-MK2 and RAW 264 cells was determined via a resazurin (RZN) reduction assay ([42]). Briefly, 2 × 10^4 cells/well were seeded in DMEM-10 in 96-well plates. Twenty-four hours later, culture medium was removed, and 10 twofold serial dilutions (100.0–0.195 µM) of each AMP in 200-µL volume were placed in duplicate wells. The plate was placed on the incubator in the dark at 37°C and 5% CO2. Ten microliters of 3-mM RZN sodium salt in PBS per well was added, and the plate was incubated for 24 h. Finally, the fluorescence was measured (530- to 560-nm excitation and 590-nm emission wavelengths). Three independent assays were performed for each peptide.

[2] = Cytotoxicity, resazurin reduction assay; type: cell-based, murine; conditions: mouse
Experimental: as §1, §2

[3] = tested on: T. cruzi trypomastigotes (Tulahuen, Tula β-gal); type: cell-based, Trypanosoma cruzi; conditions: trypomastigotes (Tulahuen, Tula β-gal, 4 h)
Experimental: T. cruzi trypomastigote culture was performed as reported previously ([35], [36]). LLC-MK2 cell monolayers were infected with 5 × 10^5 trypomastigotes in 10-mL DMEM supplemented with 2% FBS and 1% penicillin/streptomycin (DMEM-2), for 48 h at 37°C, 5% CO2 and 98% relative humidity. Parasites were subsequently removed by rinsing with PBS, and 10-mL fresh DMEM-2 was added. Five days post-infection, trypomastigotes were harvested from the culture for the trypanocidal activity assays.
Wells containing parasites not exposed to peptides and treated with 0.1% Triton served as 100% lysis reference. Plates were incubated in the dark at 37°C and 5% CO2 for 4 h, and absorbance was read at 590 nm. Experiments were performed in duplicate wells. Three independent assays were performed for each peptide.

[4] = tested on: intracellular T. cruzi amastigotes (Tula β-gal) in LLC-MK2 cells; conditions: read-out: IC50 T. cruzi amastigotes, with 95% confidence interval, 96 h, CPRG read-out, three independent assays
Experimental: Leishmania mexicana strain M379, P. falciparum reference clones NF54 (chloroquine-sensitive, isolated from a patient at an airport in the Netherlands) and TM90C2B (C2B) (chloroquine, mefloquine, and atovaquone resistant, from Thailand) and T. cruzi, β-galactosidase-expressing, Tulahuen strain parasites (C4 clone; +lacZ, henceforth abbreviated as Tula β-gal) ([33]) were employed in the study.
LLC-MK2 cells, 2 × 10^4/well, were seeded and allowed to attach overnight to 96-well plates. he medium was removed and cells were infected with 1 × 10^5 parasites in DMEM-2 for 24 h. Cell monolayers were washed four times with PBS, and serial dilutions of AMPs (100.0- to 0.195-µM range) in DMEM-2 without phenol red were added to duplicate wells. Wells containing infected cells not exposed to peptides served as parasite growth reference. The infection was allowed to proceed for 96 h. Subsequently, lysis solution was added to each well to a final concentration of 100-µM CPRG and 0.1% Triton and incubated for 2 h. Absorbance was measured at 590 nm ([41]). Three independent assays were performed for each peptide.
Half-maximal inhibitory concentration (IC50) and half-maximal cytotoxic concentration (CC50) with 95% confidence intervals in GraphPad Prism software (v.9.2.0., non-linear regression with curve fitting [model: log (inhibitor) vs response (three parameters)]. The selectivity index (SI) was determined by dividing the CC50 value of RAW 264.7 cells by the IC50 of the parasites.

[5] = tested on: P. falciparum NF54; type: cell-based, Plasmodium falciparum; conditions: NF54, 72 h
Experimental: (§3) P. falciparum was cultured in human O + erythrocytes in Roswell Park Memorial Institute medium 1640, supplemented with 25-mM HEPES buffer, 10-mM glucose, 2-mM glutamine, and O + human plasma. Parasites were cultured under low-oxygen atmosphere (5% O2, 5% CO2, and 90% N2) ([34]) and maintained in fresh human erythrocytes suspended at 4% hematocrit in complete medium at 37°C. Stock cultures were subpassaged every 3–4 days by transfer of infected red cells to a flask containing complete medium and uninfected erythrocytes.
(§4) In vitro sensitivity to peptides was tested using a previously described SYBR green I fluorescence-based method ([39], [40]). Assays were set up in 96-well plates with twofold peptide dilutions in 150-μL total volume and 1.5% (vol/vol) final red blood cell concentration. Stock solutions of each peptide were prepared in DMSO. Experiments were started at an initial parasitemia of 0.5% (80% rings) synchronous parasite-infected red blood cells. Plates were incubated for 72 h at 37°C in an atmosphere of 5% CO2, 5% O2, and 90% N2. The SYBR green I dye-lysis mixture (l:100) was added to the parasites in black plates that were incubated at room temperature for an hour in the dark. The plates were then read using a fluorescence plate reader at excitation and emission wavelengths of 480 and 535 nm, respectively. Experiments were performed in duplicate wells. Three independent assays were performed for each peptide.

[6] = tested on: P. falciparum TM90C2B (C2B); type: cell-based, Plasmodium falciparum; conditions: TM90C2B (C2B, 72 h)
Experimental: as §3, §4

[7] = tested on: Leishmania mexicana strain M379 promastigotes; type: cell-based; conditions: for SI L. mexicana: RAW 264.7 CC50/parasite IC50; for IC50: promastigotes 1 × 10^6/well, SDM without FBS, 48 h at 25°C, MTT, three independent assays in triplicate, read-out: IC50 L. mexicana, with 95% confidence interval
Experimental: L. mexicana promastigote stock cultures were maintained in USHMARU biphasic medium [blood agar slant overlayed with 3 mL of Schneider’s Drosophila medium (SDM), containing 10% fetal bovine serum (FBS)] at 25°C. Promastigotes were collected by centrifugation and washed with PBS, and culture medium was replaced every 2 days. Every 4 days, the parasites were transferred to a new tube and to a 25-cm^2 tissue culture flask containing 10 mL of monophasic medium (SDM + 10% FBS + 1% penicillin/streptomycin). If present, rosettes were disrupted by passing the culture through 10-mL syringes with 27G needles.
Parasite viability was measured colorimetrically via 3-(4,5-dimethylthiazol-2-yl)-2,5-diphenyltetrazole bromide tetrazolium salt (MTT) reduction. Promastigotes were placed in 96-well conical-bottom plates in SDM + 1% penicillin/streptomycin without FBS, at a density of 1 × 10^6/well. Untreated parasites (growth control), 1-µM amphotericin B diluted in DMSO (positive control), 0.25% DMSO (negative control), and each of the peptides at a final concentration of 0.1, 0.5, 1.0, 5.0, and 10.0 µM were included in triplicate wells. Plates were incubated at 25°C for 48 h. Subsequently, 20-µL 10% MTT was added per well. Plates were incubated for 2 h in the dark at the same temperature and centrifuged at 4,000 rpm for 10 min, and the supernatant was removed. Formazan crystals were diluted with 50-µL DMSO, and absorbances (A570–630) were read ([37], [38]). Three independent assays were performed for each peptide.

[8] = tested on: Candida albicans ATCC 10231; type: cell-based; conditions: ATCC 10231, 16 h
Experimental: (§5) The minimum inhibitory concentration (MIC) of CZS-4 over Escherichia coli American Type Culture Collection (ATCC) 25922, Staphylococcus aureus ATCC 29213, and Candida albicans ATCC 10231 was determined, as previously described ([28], [30], [31]). In brief, overnight cultures of each microorganism were subcultured in Muller-Hinton Broth (MHB) until reaching 1 × 10^6 CFU/mL for bacteria and 1 × 10^5 CFU/mL for yeast. Peptide serial dilutions in dimethylsulfoxide (DMSO), ranging from 0.4 to 209.4 µM were prepared, and 2 µL of each peptide dilution was added to 198-µL diluted bacterial or yeast culture in a 96-well sterile plate (with five replicates). Sterile MHB and microbial culture with DMSO were negative controls. Plates were incubated for 16 h at 37°C. Microorganism growth was measured at 600 nm.

[9] = tested on: Escherichia coli ATCC 25922; type: cell-based; conditions: ATCC 25922, 16 h
Experimental: as §5

[10] = tested on: Staphylococcus aureus ATCC 29213; type: cell-based; conditions: ATCC 29213, 16 h
Experimental: as §5

[11] = tested on: red blood cell; type: cell-based
Experimental: Hemolytic activity was determined using 200 µL of 4% red blood cell solution incubated with 200 µL of serial dilutions peptide (0.4–209.4 µM) in phosphate-buffered saline (PBS) 1× (five replicates). Negative controls contained PBS instead of peptide; positive controls contained 2% vol/vol Triton X-100 to yield complete hemolysis. Assays were incubated at 37°C for 2 h, and samples were centrifuged at […] for 5 min. Two-hundred microliters of supernatant was transferred to a 96-well plate and absorbance was measured at 550 nm.

[12] = RAW 264.7 macrophages, resazurin reduction, 24 h, 100.0–0.195 µM, three independent assays in duplicate wells, read-out: IC50 (CC50) Raw 264.7, with 95% confidence interval

Substance	CC50 at 24 h [1]	CC50 at 24 h [2, 12]	IC50 [3]	IC50 [4]	IC50 [5]	IC50 [6]	SI L. mexicana [7]	IC50 [7]	MIC [8]	MIC [9]	MIC [10]	Hemolysis ([11]; 128 µM)	Hemolysis ([11]; 2 h)	Hemolysis (%) ([11]; 2 h, 13.09 µM)	Hemolysis (%) ([11]; 2 h, 26.18 µM)	Hemolysis (%) ([11]; 2 h, 104.73 µM)	Hemolysis (%) ([11]; 2 h, 209.46 µM)	CC50 at 24 h [2]
GFLDVLKGVGKAALGAVTHLINQ-NH2 [CZS-16]	5.59 µM	4.4 µM	18.7 µM	38.3 µM	36.8 µM	34.4 µM	–	–	–	–	–	–	–	–	–	–	–	–
GFLDTLKNIGKTVGRIALNVLT-NH2 [PTS-1]	80.1 µM	2.52 µM	1.42 µM	30.2 µM	52.6 µM	24.9 µM	25.20	0.1 µM	–	–	–	–	–	–	–	–	–	–
GFLDIVKGVGKVALGAVSKLF-NH2 [CZS-1]	3.17 µM	2.38 µM	2.87 µM	16.7 µM	31.2 µM	16.8 µM	4.41	0.54 µM	–	–	–	–	–	–	–	–	–	–
GFLDVIKHVGKAALSVVSHLINE-NH2 [CZS-4]	70.7 µM	48 µM	1.55 µM	30.7 µM	13.9 µM	4.87 µM	532.89	0.09 µM	52.36 µM	13.09 µM	26.18 µM	13%	less than 9.1%	1.2%	9.1%	28.5%	36.3%	–
ASWKVFLKNIGKAAGKAVLNSVTDMVNQ-NH2 [DRS-SP2]	–	–	–	–	12.1 µM	15.3 µM	5.15	0.61 µM	–	–	–	–	–	–	–	–	–	3.14 µM
